According to patent US20180071242A1, “SUBSTITUTED ACYLANILIDES AND METHODS OF USE THEREOF” (University of Tennessee Research Foundation, priority 2006, published 2018):
Entries after “also recorded” stand apart in the source; their conditions may differ. Where two headings read alike, the source gives them in different places.

What was measured:
[1] = system: intact male Sprague-Dawley rats; test: Anabolic and androgenic activity in intact male rats; type: in vivo, rat
Method: (§1) Anabolic and androgenic efficacy of compound of formula (I) administered by daily oral gavage were tested. The S-isomer of compound (I) [S-(I)] was synthesized and tested as described herein.
The test article for this study was weighed and dissolved in 10% DMSO (Fischer) diluted with PEG 300 (Acros Organics, NJ) for preparation of the appropriate dosage concentrations. The animals were housed in groups of 2 to 3 animals per cage. Animals were randomly assigned to one of seven groups consisting of 4 to 5 animals per group. Control groups (intact and ORX) were administered vehicle daily. S-(I) was administered via oral gavage at doses of 0.01, 0.03, 0.1, 0.3, 0.75, and 1 mg/day to both intact and ORX groups. Where appropriate, animals were castrated on day one of the study. […]
The animals were sacrificed under anesthesia (ketamine/xyalzine, 87:13 mg/kg) and body weights were recorded. In addition, ventral prostate, seminal vesicles, and levator ani muscle were removed, individually weighed, normalized to body weight, and expressed as a percentage of intact control. […] Ventral prostate and seminal vesicle weights were evaluated as a measure of androgenic activity, whereas levator ani muscle weight was evaluated as a measure of anabolic activity. […] Serum luteinizing hormone (LH) and follicle stimulating hormone (FSH) concentrations were determined.

[2] = system: orchidectomized (ORX) male Sprague-Dawley rats; test: Anabolic and androgenic activity in castrated (ORX) male rats; type: in vivo, rat; settings: for Seminal vesicles weight: castrated (ORX) rats, oral gavage; for Anabolic ratio (muscle/prostate weight): castrated rats
Method: as §1
The test article for this study was weighed and dissolved in 10% DMSO (Fischer) diluted with PEG 300 (Acros Organics, NJ) for preparation of the appropriate dosage concentrations. The animals were housed in groups of 2 to 3 animals per cage. Animals were randomly assigned to one of seven groups consisting of 4 to 5 animals per group. Control groups (intact and ORX) were administered vehicle daily. S-(I) was administered via oral gavage at doses of 0.01, 0.03, 0.1, 0.3, 0.75, and 1 mg/day to both intact and ORX groups. Where appropriate, animals were castrated on day one of the study. Treatment with S-(I) began nine days post ORX and was administered daily via oral gavage for fourteen days.
The animals were sacrificed under anesthesia (ketamine/xyalzine, 87:13 mg/kg) and body weights were recorded. In addition, ventral prostate, seminal vesicles, and levator ani muscle were removed, individually weighed, normalized to body weight, and expressed as a percentage of intact control. Student's T-test was used to compare individual dose groups to the intact control group. Significance was defined a priori as a P-value <0.05. Ventral prostate and seminal vesicle weights were evaluated as a measure of androgenic activity, whereas levator ani muscle weight was evaluated as a measure of anabolic activity. Blood was collected from the abdominal aorta, centrifuged, and sera were frozen at −80° C. prior to determination of serum hormone levels. Serum luteinizing hormone (LH) and follicle stimulating hormone (FSH) concentrations were determined.

[3] = Metabolic stability measured in human liver microsomes; type: in vitro ADME; settings: for microsomal CLint at 0.6 μM: human, pH 7.4, human liver microsomes
Method: Metabolic stability assays were performed in order to assess the in vitro half-life of the S-isomer of compound of formula (I) [S-(I)] when incubated with human liver microsomes. Intrinsic clearance values were extrapolated. Permeability of the compound across human, intestinal epithelial monolayers (Caco-2 cells) was assessed as a measure of intestinal permeability as well as an indicator of efflux potential. Caco-2 cells are often used as an early screening surrogate for oral bioavailability. Microsomal half-life can be converted to in vitro clearance values as a means to predict hepatic intrinsic clearance. Intrinsic clearance is defined as the functional ability of the liver to metabolize a drug or other compound.
S-(I) in this study was incubated at a final concentration of 0.6 μM. Microsome reactions were performed under either Phase I or “Phase I and II” conditions, where indicated. Compound stocks (10 mM ACN) were initially diluted to a concentration of 60 μM (in 60% ACN/H2O) resulting in a “working stock” solution of 100×. Human liver microsomes were utilized at a final concentration of […]. Duplicate wells were used for each time point (0, 6, 10, 30, and 60 minutes). Reactions were carried out at 37° C. in a shaking water bath, and the final concentration of solvent was kept constant at 0.6%. The final volume for each reaction was 600 μl, comprised of […] of 100 mM KPO4 buffer, (pH 7.4); 12.6 μl of HLM (from a 20 mg/ml stock); 6 μl of 100× “working stock” drug compound, and 126 μl of NRS “master mix” solution. At each time point, 100 μl of reaction was removed and added to a sample well containing 100 μl of ice-cold, 100% ACN (plus internal standards), to stop the reaction. The NRS “master mix” is a solution of glucose 6-phosphate dehydrogenase, NADP^+, MgCl2, and glucose 6-phosphate, prepared per manufacturer's instructions (BD Biosciences, Waltham, Mass.). Each […] stock of NRS “master mix” solution contains 3.8 ml H2O, 1.0 ml solution “A” (Cat. #461220), and 0.2 ml solution “B” (Cat. #461200). Human liver microsomes (lot #0610279, Xenotech Corp.) represented a pool of 60 donors.
Samples were centrifuged at 3,000 rpm for 10 minutes at 4° C. to remove debris and precipitated protein. […] The concentration of parent drug remaining in each well (expressed as percent remaining versus Time ‘0’, at the beginning of the reaction) was measured by LC/MS, as detailed below.
All samples were analyzed on the MDS/Sciex API4000 Q Trap system with electrospray ionization (ESI) in the positive or negative SIM mode, depending on the compounds. […] The percentage of parent drug compound remaining after each time point was determined relative to the initial measured concentration at the beginning of the reaction (T0 min). […]

[4] = Pharmacokinetics in dogs; type: in vivo; settings: beagle dogs
Method: In order to determine the pharmacokinetics of the S-isomer of the compound of formula (I) [S-(I)], the compound was administered to beagle dogs perorally, and circulating plasma levels, terminal elimination half-life (t1/2), total body clearance (CL), terminal volume distribution (Vz) and absolute bioavailability (F %) (Table 4) were determined.

[5] = system: DMD (−/−) UTRN (+/+) mice; test: mdx mouse model of Duchenne muscular dystrophy
[6] = castrated mdx mice, 10 mg/kg/day subcutaneously, 12 weeks
[7] = castrated mdx mice, 10 mg/kg/day subcutaneously, 12 weeks, 10 mg/kg/day

Compound: C[C@](O)(COc1ccc(C#N)cc1)C(=O)Nc1ccc(C#N)c(Cl)c1 [S-(I), (S)—N-(3-chloro-4-cyanophenyl)-3-(4-cyanophenoxy)-2-hydroxy-2-methylpropanamide]
- Seminal vesicles weight (in words) [1]: decreases
- Seminal vesicles weight ([2]; 0.01 mg/day): 10%±3%
- Seminal vesicles weight ([2]; 0.03 mg/day): 13%±4%
- Seminal vesicles weight ([2]; 0.1 mg/day): 21%±6%
- Seminal vesicles weight ([2]; 0.3 mg/day): 43%±8%
- Seminal vesicles weight ([2]; 0.75 mg/day): 51%±9%
- Seminal vesicles weight ([2]; 1 mg/day): 69%±14%
- Anabolic ratio (muscle/prostate weight) ([2]; 0.01 mg/day): 3.02
- Anabolic ratio (muscle/prostate weight) ([2]; 0.03 mg/day): 2.13
- Anabolic ratio (muscle/prostate weight) ([2]; 0.1 mg/day): 2.27
- Anabolic ratio (muscle/prostate weight) ([2]; 0.3 mg/day): 1.90
- Anabolic ratio (muscle/prostate weight) ([2]; 0.75 mg/day): 1.83
- Anabolic ratio (muscle/prostate weight) ([2]; 1 mg/day): 1.51
- Half Life (minutes) Phase I only ([3]; Phase I only): Stable
- microsomal CLint at 0.6 μM ([3]; Phase I + II, read-out: CLint (μl/min/mg) Phase I + II): 2 µL/min/mg
- microsomal CLint at 0.6 μM ([3]; Phase I only, read-out: CLint (μl/min/mg) Phase I only): < 1 µL/min/mg
- half-life at 0.6 μM ([3]; pH 7.4, Phase I + II): 5.81 h
- Absorption (in words) ([4]; perorally): rapidly and completely absorbed
- bioavailability ([4]; dog, plasma, oral, perorally, read-out: F%, absolute bioavailability): 96.2%
- clearance ([4]; dog, plasma, oral, read-out: CL, total body clearance): 1.68 ± 0.13 mL/min/kg
- Vd ([4]; dog, plasma, oral, read-out: Vz, terminal volume distribution): 1.52 ± 0.142 L/kg
- half-life ([4]; dog, plasma, oral, read-out: t½, terminal elimination half-life (converted)): 10.4 ± 0.5 h
- Fat mass (in words) [5, 6]: decrease
- Grip strength (in words) [5, 6]: significant increase
- Body weight (in words) [5, 7]: increased; also recorded: significant increase
- Lean [muscle] mass (in words) [5, 7]: increased; also recorded: significant increase
- Body weight (in words) ([5]; intact mdx mice): increased
- Lean mass (in words) ([5]; intact mdx mice): increased
